Test results as given in patent US5254546A, “Fused aryl substituted imidazole angiotensin II receptor inhibitors” (E. I. Du Pont de Nemours and Company, priority 1992, dated 1993).

Experiments:
[1] = molecular target: Angiotensin II Receptor; assay: AII receptor ligand-receptor binding assay (rat adrenal cortical microsomes, displacement of 3H-AII or 125I-AII); conditions: Table 7, 1 hour, room temperature
Experimental: The hormone angiotensin II (AII) produces numerous biological responses (e.g. vasoconstriction) through stimulation of its receptors on cell membranes. For the purpose of identifying compounds such as AII antagonists which are capable of interacting with the AII receptor, a ligand-receptor binding assay was utilized for the initial screen. The assay was carried out according to the method described by [Glossmann et al., J. Biol. Chem., 249, 825 (1974)], but with some modifications. The reaction mixture contained rat adrenal cortical microsomes (source of AII receptor) in Tris buffer and 2 nM of ^3 H-AII or 0.05 nM ^125 I-AII with or without potential AII antagonist. This mixture was incubated for 1 hour at room temperature and the reaction was subsequently terminated by rapid filtration and rinsing through glass micro-fibre filter. Receptor-bound ^3 H-AII or ^125 I-AII trapped in filter was quantitated by scintillation counting. The inhibitory concentration (IC50) of potential AII antagonist which gives 50% displacement of the total specifically bound ^3 H-AII or ^125 I-AII is a measure of the affinity of such compound for the AII receptor.

[2] = tested on: awake rats made hypertensive by ligation of the left renal artery; assay: Antihypertensive effects in renal hypertensive rats (left renal artery ligation); type: in vivo, rat; conditions: for Antihypertensive Effects in Renal Hypertensive Rats, Intravenous Activity: 3 mg/kg; for Antihypertensive Effects in Renal Hypertensive Rats, Oral Activity: 30 mg/kg
Experimental: Blood pressure levels after treatment are compared to pretreatment levels to determine the antihypertensive effects of the compounds which were tested.

[3] = tested on: effects of AII on the blood pressure of pithed rats; conditions: cited from earlier work
[4] = tested on: mammals and man; conditions: cited from earlier work
[5] = tested on: renal vasoconstrictor effect of indomethacin and meclofenamate in dogs; conditions: cited from earlier work

| SMILES | IC50 [1] [nM] | Antihypertensive Effects in Renal Hypertensive Rats, Intravenous Activity [2] | Antihypertensive Effects in Renal Hypertensive Rats, Oral Activity [2] | also measured |
| --- | --- | --- | --- | --- |
| CCCc1nc(-c2cccc3ccccc23)c(C=O)n1Cc1ccc(-c2ccccc2-c2nnn[nH]2)cc1 [Example 1, 4-(naphth-1-yl)-2-n-propyl-1-[(2'-(1H-tetrazol-5-yl)biphenyl-4-yl)methyl]imidazole-5-carboxaldehyde] | 21 | + (Significant decrease in blood pressure at 3.0 mg/kg or less) | + (Significant decrease in blood pressure at 30 mg/kg or less) | – |
| CCCc1nc(-c2cc3ccccc3s2)c(C=O)n1Cc1ccc(-c2ccccc2-c2nn[nH]n2)cc1 [Example 7] | 29 | NA (Not active at 3 mg/kg or 30 mg/kg dosage tested) | – | – |
| CCCc1nc(-c2ccc(F)c3ccccc23)c(C=O)n1Cc1ccc(-c2ccccc2-c2nn[nH]n2)cc1 [Example 8] | 170 | NA (Not active at 3 mg/kg or 30 mg/kg dosage tested) | – | – |
| CCCc1nc(-c2ccc3c4c(cccc24)CC3)c(C=O)n1Cc1ccc(-c2ccccc2-c2nn[nH]n2)cc1 [Example 9] | 490 | NA (Not active at 3 mg/kg or 30 mg/kg dosage tested) | – | – |
| CCCc1nc(-c2ccc3ccccc3c2)c(C=O)n1Cc1ccc(-c2ccccc2-c2nn[nH]n2)cc1 [Example 10] | 99 | NA (Not active at 3 mg/kg or 30 mg/kg dosage tested) | NA (Not active at 3 mg/kg or 30 mg/kg dosage tested) | – |
| CCCc1nc(-c2ccc3cc(OC)ccc3c2)c(C=O)n1Cc1ccc(-c2ccccc2-c2nn[nH]n2)cc1 [Example 11] | 160 | NA (Not active at 3 mg/kg or 30 mg/kg dosage tested) | – | – |
| CCCc1nc(-c2cc3ccccc3c3ccccc23)c(C=O)n1Cc1ccc(-c2ccccc2-c2nn[nH]n2)cc1 [Example 24] | 170 | + (Significant decrease in blood pressure at 3.0 mg/kg or less) | NA (Not active at 3 mg/kg or 30 mg/kg dosage tested) | – |
| CCCc1nc(-c2cc3ccccc3o2)c(C=O)n1Cc1ccc(-c2ccccc2-c2nn[nH]n2)cc1 [Example 41] | 110 | + (Significant decrease in blood pressure at 3.0 mg/kg or less) | + (Significant decrease in blood pressure at 30 mg/kg or less) | – |
| CCCc1nc(/C=C\c2cccc3ccccc23)c(C=O)n1Cc1ccc(-c2ccccc2-c2nn[nH]n2)cc1 [Example 95] | 13 | + (Significant decrease in blood pressure at 3.0 mg/kg or less) | + (Significant decrease in blood pressure at 30 mg/kg or less) | – |
| CCCc1nc(/C=C/c2cccc3ccccc23)c(C=O)n1Cc1ccc(-c2ccccc2-c2nn[nH]n2)cc1 [Example 96] | 560 | + (Significant decrease in blood pressure at 3.0 mg/kg or less) | – | – |
| CCCc1nc(/C=C\c2ccc3ccccc3c2)c(C=O)n1Cc1ccc(-c2ccccc2-c2nn[nH]n2)cc1 [Example 97] | 540 | + (Significant decrease in blood pressure at 3.0 mg/kg or less) | – | – |
| CNCC(=O)N[C@@H](CCCN=C(N)N)C(=O)N[C@H](C(=O)N[C@@H](Cc1ccc(O)cc1)C(=O)N[C@H](C(=O)N[C@@H](Cc1cnc[nH]1)C(=O)N1CCC[C@H]1C(=O)N[C@@H](C)C(=O)O)C(C)C)C(C)C [Saralasin, [Sar^1, Ala^8] AII] | – | – | – | antagonism of AII effects on blood pressure [3]: one of the most potent competitive antagonists of the actions of AII; oral effectiveness ([4]; oral doses): oral doses being ineffective; duration of pharmacological effects ([4]; parenteral administration): relatively short-lasting; lowering of arterial pressure ([4]; when the elevated pressure is dependent on circulating AII): lower arterial pressure in mammals and man; pressor effects ([4]; when the pressure is not sustained by AII): generally elicits pressor effects when the pressure is not sustained by AII; effect on renal vasoconstriction by NSAID [5]: inhibit the renal vasoconstrictor effect of indomethacin and meclofenamate in dogs |
| C[C@H](CS)C(=O)N1CCC[C@H]1C(=O)O [captopril] | – | – | – | effect on renal vasoconstriction by NSAID [5]: reverse the renal vasoconstrictor effect of indomethacin in dogs with non-hypotensive hemorrhage |
